Bounds are passed on as bounds.

In patent US7759337B2, “Phthalazine compounds and methods of use” (Amgen Inc., priority 2005, dated 2010) one finds IC50 data, which are given here for 32 molecules.

The test system of this experiment is production of TNF by monocytes activated with bacterial lipopolysaccharide (LPS). Kind of experiment: Lipopolysaccharide-activated monocyte TNF production assay. It is filed as cell-based. To be noted: Homo sapiens; whole blood monocyte assay (LPS induced TNF release). The procedure: Test compounds were evaluated in vitro for the ability to inhibit the production of TNF by monocytes activated with bacterial lipopolysaccharide (LPS). Fresh residual source leukocytes (a byproduct of plateletpheresis) were obtained from a local blood bank, and peripheral blood mononuclear cells (PBMCs) were isolated by density gradient centrifugation on Ficol-Paque Plus (Pharmacia). PBMCs were suspended at 2×10^6/mL in DMEM supplemented to contain 2% FCS, 10 mM, 0.3 mg/mL […], 100 U/mL penicillin G and […] streptomycin sulfate (complete media). Cells were plated into Falcon flat bottom, 96 well culture plates (200 μL/well) and cultured overnight at 37° C. and 6% CO2. Non-adherent cells were removed by washing with 200 μl/well of fresh medium.
Test compounds were dissolved in […]. Compound stock solutions were prepared to an initial concentration of […]. Stocks were diluted initially to 20-200 μM in complete media. Nine two-fold serial dilutions of each compound were then prepared in complete medium.
One hundred microliters of each test compound dilution were added to microtiter wells containing adherent monocytes and 100 μL complete medium. Monocytes were cultured with test compounds for 60 min at which time 25 μL of complete medium containing 30 ng/mL lipopolysaccharide from E. coli K532 were added to each well. Cells were cultured an additional 4 hrs. Culture supernatants were then removed and TNF presence in the supernatants was quantified using an ELISA.
Flat bottom, 96 well Corning High Binding ELISA plates were coated overnight (4° C.) with 150 μL/well of 3 μg/mL murine anti-human TNF-α MAb (R&D Systems #MAB210). Wells were then blocked for 1 h at room temperature with 200 μL/well of CaCl2-free ELISA buffer supplemented to contain 20 mg/mL BSA (standard ELISA buffer: […], 150 mM NaCl, 2 mM CaCl2, 0.15 mM thimerosal, pH 7.4). Plates were washed and replenished with 100 μL of test supernatants (diluted 1:3) or standards. Standards consisted of eleven 1.5-fold serial dilutions from a stock of I ng/mL recombinant human TNF (R&D Systems). Plates were incubated at room temperature for 1 h on orbital shaker (300 rpm), washed and replenished with 100 μL/well of 0.5 μg/mL goat anti-human TNF-α (R&D systems #AB-210-NA) biotinylated at a 4:1 ratio. Plates were incubated for 40 min, washed and replenished with 100 μL/well of alkaline phosphatase-conjugated streptavidin (Jackson ImmunoResearch #016-050-084) at 0.02 μg/mL. Plates were incubated 30 min, washed and replenished with 200 μL/well of 1 mg/mL of p-nitrophenyl phosphate. After 30 min, plates were read at 405 nm on a Vmax plate reader.
Standard curve data were fit to a second order polynomial and unknown TNF-α concentrations determined from their OD by solving this equation for concentration. TNF concentrations were then plotted vs. test compound concentration using a second order polynomial. This equation was then used to calculate the concentration of test compounds causing a 50% reduction in TNF production.
For orientation: IC50 means the concentration that inhibits the measured activity by half. A higher IC50 goes with weaker potency in that assay. Consider `Cc1cc(C(=O)NC2CC2)sc1-c1ccc2c(N3CCOCC3)nncc2c1` [Example 46, N-cyclopropyl-4-methyl-5-(1-morpholinophthalazin-6-yl)thiophene-2-carboxamide], for which the IC50 was ≤ 5 µM.

As to `Cc1ccc(C(=O)NC2CC2)cc1-c1ccc2c(N3C(C)CC[C@@H]3C(=O)NC(C)C)nncc2c1` (stereo partly drawn) [Example 68, (2R)-1-(6-(5-(Cyclopropylcarbamoyl)-2-methylphenyl)phthalazin-1-yl)-N-isopropyl-5-methylpyrrolidine-2-carboxamide], the IC50 is ≤ 5 µM. The value for `Cc1ccc(C(=O)NC2CC2)cc1-c1ccc2c(-c3ccccc3F)nncc2c1` [Example 246, N-cyclopropyl-3-[1-(2-fluorophenyl)phthalazin-6-yl]-4-methylbenzamide] was ≤ 5 µM. In the case of `CONC(=O)c1ccc(C)c(-c2ccc3c(NC(C)C)nncc3c2)c1` [Example 279, 3-[1-(isopropylamino)phthalazin-6-yl]-N-methoxy-4-methylbenzamide] it was ≤ 5 µM; in that of `Cc1ccc(C(=O)NC2CC2)cc1-c1ccc2c(NCCCN3CCCC3=O)nncc2c1` [Example 310, N-cyclopropyl-4-methyl-3-(1-{[3-(2-oxopyrrolidin-1-yl)propyl]amino}phthalazin-6-yl)benzamide], ≤ 5 µM.

With `Cc1ccc(C(N)=O)cc1-c1ccc2c(N3CCNC(=O)CC3)nncc2c1` [Example 277, 4-methyl-3-[1-(5-oxo-1,4-diazepan-1-yl)phthalazin-6-yl]benzamide], the half-maximal inhibitory concentration (IC50) was ≤ 5 µM.

For the molecule `COc1ccc(-c2nncc3cc(-c4cc(C(=O)NC5CC5)ccc4C)ccc23)c(C)c1` [Example 242, N-cyclopropyl-3-[1-(4-methoxy-2-methylphenyl)phthalazin-6-yl]-4-methylbenzamide], the IC50 is ≤ 5 µM. Consider `CNc1noc2c(-c3ccc4c(N5C[C@@H](C)OC[C@H]5C)nncc4c3)c(C)ccc12` [Example 65, 7-(1-((2R,5R)-2,5-dimethylmorpholino)phthalazin-6-yl)-N,6-dimethylbenzo [d]isoxazol-3-amine], for which the IC50 is ≤ 5 µM. The value for `Cc1ccc(C(=O)NC2CC2)cc1-c1ccc2c(-c3ccc(S(N)(=O)=O)cc3C)nncc2c1` [Example 218, 3-{1-[4-(aminosulfonyl)-2-methylphenyl]phthalazin-6-yl}-N-cyclopropyl-4-methylbenzamide] was ≤ 5 µM; that for `Cc1ccc(C(=O)NC2CC2)cc1-c1ccc2c(-c3ccccc3Cl)nncc2c1` [Example 170, 3-[1-(2-chlorophenyl)phthalazin-6-yl]-N-cyclopropyl-4-methylbenzamide] was ≤ 5 µM. As for `Cc1ccc(C(N)=O)cc1-c1ccc2c(Cl)nncc2c1` [Example 145, 3-(1-chlorophthalazin-6-yl)-4-methylbenzamide], the IC50 was ≤ 5 µM.

With `Cc1ccc(C(=O)NC2CC2)cc1-c1ccc2c(C3CCN(C)CC3)nncc2c1` [Example 150, N-cyclopropyl-4-methyl-3-[1-(1-methylpiperidin-4-yl)phthalazin-6-yl]benzamide], the concentration for half-maximal inhibition (IC50) was ≤ 5 µM. The value for `Cc1ccc(C(N)=O)cc1-c1ccc2c(-c3ccc(S(C)(=O)=O)cc3)nncc2c1` [Example 214, 4-methyl-3-{1-[4-(methylsulfonyl)phenyl]phthalazin-6-yl}benzamide] was ≤ 5 µM. As to `Cc1ccc(C(N)=O)cc1-c1ccc2c(-c3cc(F)ncc3C)nncc2c1` [Example 259, 3-[1-(2-fluoro-5-methylpyridin-4-yl)phthalazin-6-yl]-4-methylbenzamide], the IC50 is ≤ 5 µM. The value for `Cc1ccc(C(N)=O)cc1-c1ccc2c(N3CCS(=O)(=O)CC3)nncc2c1` [Example 127, 3-[1-(1,1-dioxidothiomorpholin-4-yl)phthalazin-6-yl]-4-methylbenzamide] was ≤ 5 µM.

`Cc1ccc(C(=O)NC2CC2)cc1-c1ccc2c(N3CCN(C)CC3)nncc2c1` [Example 23, N-cyclopropyl-4-methyl-3-(1-(4-methylpiperazin-1-yl)phthalazin-6-yl)benzamide]: the IC50 is ≤ 5 µM.

Turning to `Cc1ccc(C(=O)NC2CC2)cc1-c1ccc2c(N3CCOC[C@H]3C)nncc2c1` [Example 75, N-Cyclopropyl-4-methyl-3-{1-[(3R)-3-methylmorpholin-4-yl]phthalazin-6-yl}benzamide], the half-inhibitory concentration (IC50) was ≤ 5 µM. For `Cc1ccc(C(=O)NC2CC2)cc1-c1ccc2c(N3CCC[C@H]3C(C)C)nncc2c1` [Example 293, N-cyclopropyl-3-{1-[(2S)-2-isopropylpyrrolidin-1-yl]phthalazin-6-yl}-4-methylbenzamide], the IC50 is ≤ 5 µM.

As for `CCNC(=O)N1CCN(c2nncc3cc(-c4cc(C(=O)NC5CC5)ccc4C)ccc23)CC1` [Example 129, 4-(6-{5-[(cyclopropylamino)carbonyl]-2-methylphenyl}phthalazin-1-yl)-N-ethylpiperazine-1-carboxamide], the IC50 is ≤ 5 µM. As to `Cc1ccc2c(NC3CC3)noc2c1-c1ccc2c(N3CCOC[C@@H]3C)nncc2c1` [Example 14, N-cyclopropyl-6-methyl-7-(1-((S)-3-methylmorpholino)phthalazin-6-yl)benzo[d]isoxazol-3-amine], the IC50 was ≤ 5 µM. In the case of `Cc1ccc(C(=O)NC2CC2)cc1-c1ccc2c(N3CC[C@H]4CCCC[C@H]4C3)nncc2c1` [Example 136, 3-{1-[(4aR,8aR)-octahydroisoquinolin-2(1H)-yl]phthalazin-6-yl}-N-cyclopropyl-4-methylbenzamide] it was ≤ 5 µM; in that of `COC[C@H](C)Nc1nncc2cc(-c3cc(C(N)=O)ccc3C)ccc12` [Example 190, 3-(1-{[(1S)-2-methoxy-1-methylethyl]amino}phthalazin-6-yl)-4-methylbenzamide], ≤ 5 µM. The value for `Cc1ccccc1-c1nncc2cc(Oc3ccc(F)cc3F)ccc12` [Example 345, 6-(2,4-difluorophenoxy)-1-(2-methylphenyl)phthalazine] was ≤ 5 µM.

Regarding `Cc1cc(NC(=O)c2ccc(C)c(-c3ccc4c(N5CCOCC5)nncc4c3)c2)no1` [Example 380, 4-methyl-N-(5-methylisoxazol-3-yl)-3-(1-morpholin-4-ylphthalazin-6-yl)benzamide], the IC50 is ≤ 5 µM. For the molecule `Cc1ccccc1-c1nncc2cc(Oc3cccc(F)c3)ccc12` [Example 355, 6-(3-fluorophenoxy)-1-(2-methylphenyl)phthalazine], the IC50 was ≤ 5 µM. The value for `Cc1ccc2c(NC(C)(C)C)noc2c1-c1ccc2c(N3CCOC[C@@H]3C)nncc2c1` [Example 381, N-(tert-butyl)-6-methyl-7-{1-[(3S)-3-methylmorpholin-4-yl]phthalazin-6-yl}-1,2-benzisoxazol-3-amine] was ≤ 5 µM; that for `CCOc1ccc(-c2nncc3cc(-c4cc(C(N)=O)ccc4C)ccc23)c(Cl)c1` [Example 231, 3-[1-(2-chloro-4-ethoxyphenyl)phthalazin-6-yl]-4-methylbenzamide] was ≤ 5 µM. Consider `Fc1ccc(Oc2ccc3c(-c4ccccc4C(F)(F)F)nncc3c2)cc1` [Example 339, 6-(4-fluorophenoxy)-1-[2-(trifluoromethyl)phenyl]phthalazine], for which the IC50 was ≤ 5 µM. Regarding `Cc1ccc(C(=O)NC2CC2)cc1-c1ccc2c(N3C[C@@H](C)OC[C@@H]3C)nncc2c1` [Example 112, N-cyclopropyl-3-{1-[(2R,5S)-2,5-dimethylmorpholin-4-yl]phthalazin-6-yl}-4-methylbenzamide], the IC50 was ≤ 5 µM.

Consider `Cc1ccc(C(=O)NC2CC2)cc1-c1ccc2c(NC3CCCC3)nncc2c1` [Example 325, 3-[1-(cyclopentylamino)phthalazin-6-yl]-N-cyclopropyl-4-methylbenzamide], for which the half-maximal inhibitory concentration (IC50) was ≤ 5 µM. With `Cc1ccc(C(N)=O)cc1-c1ccc2c(-c3ccc(Cl)cc3Cl)nncc2c1` [Example 223, 3-[1-(2,4-dichlorophenyl)phthalazin-6-yl]-4-methylbenzamide], the IC50 was ≤ 5 µM. In the case of `CNc1noc2c(-c3ccc4c(O[C@@H](C)COC)nncc4c3)c(C)ccc12` [Example 330, N,6-dimethyl-7-(1-(((1S)-1-methyl-2-(methyloxy)ethyl)oxy)-6-phthalazinyl)-1,2-benzisoxazol-3-amine] it was ≤ 5 µM.
